Each structure is given as a SMILES string. Structures can show the parent of a compound that is named as a salt. Some results are limits rather than exact numbers.

Usually IC50 stands for the point on the concentration scale where inhibition reaches its midpoint.

In assay [1] the target is ZVpro (Zika virus NS2B-NS3 protease) (Zika virus, UniProt A0A024B7W1). Description: Fluorescence-based biochemical assay of ZVpro inhibition. The following applies: for ZVpro IC50: enzyme 1 nM, substrate 10 μM, HEPES pH 7.3.
For assay [2], the target named is DV2pro (NS2B-NS3 protease from DENV serotype-2) (Dengue virus type 2, UniProt P29990). Description: Fluorescence-based biochemical assay of DV2pro inhibition. The following applies: IC50 vs substrate concentration 0.5 to 50 μM.
Assay [3] has as its system ZIKV-FLR in U87 cells. The assay can be described thus: Anti-ZIKV activity in U87 cells. The class given is cell-based, Zika virus.

Take `CC(C)(C)c1ccc(-c2ccc3c(ccn3Cc3ccc(-c4ccoc4)cc3)c2)cc1` [Compound 4, 5-(4-(Tert-butyl)phenyl)-1-(4-(furan-3-yl)benzyl)-1H-indole Hydrochloride]: in assay [1], the IC50 was greater than 50 µM and the “ZVpro IC50” value was “inactive”.

For the compound `CC(C)(C)c1ccc(-c2ccc3c(ccn3Cc3ccc(-c4ccncc4)cc3)c2)cc1` [Compound 5, 5-(4-(Tert-butyl)phenyl)-1-(4-(pyridin-4-yl)benzyl)-1H-indole Hydrochloride], in assay [1], the IC50 was greater than 50 µM and the “ZVpro IC50” value was “inactive”.

`CC(C)(C)c1ccc(-c2ccc3cc(C(=O)NCC4CCNCC4)[nH]c3c2)cc1` [Compound 8, 6-(4-(Tert-butyl)phenyl)-N-(piperidin-4-ylmethyl)-1H-indole-2-carboxamide Hydrochloride]: the IC50 in assay [1] stood at 1.3 µM.

On to `CC(C)(C)c1ccc(-c2ccc3c(C(=O)NCC4CCNCC4)c[nH]c3n2)cc1` [Compound 9, 6-(4-(tert-butyl)phenyl)-N-(piperidin-4-ylmethyl)-1H-pyrrolo[2,3-b]pyridine-3-carboxamide Hydrochloride], for which, in assay [1], the IC50 was 9.1 µM.

`CC(C)(C)c1ccc(-c2ccc3[nH]c(C(=O)NCC4CCNCC4)nc3c2)cc1` [Compound 10, 5-(4-(tert-butyl)phenyl)-N-(piperidin-4-ylmethyl)-1H-benzo[d]imidazole-2 carboxamide Hydrochloride]: the IC50 in assay [1] turned out to be 3.1 µM.

For the compound `CC(C)(C)c1ccc(-c2ccc3sc(C(=O)NC4CCNCC4)cc3c2)cc1` [Compound 11, 5-(4-(Tert-butyl)phenyl)-N-(piperidin-4-yl)benzo[b]thiophene-2-carboxamide Hydrochloride], the IC50 in assay [1] was determined as 3.2 µM.

On to `CC(C)(C)c1ccc(-c2ccc3cc(C(=O)NC4CCNCC4)sc3c2)cc1` [Compound 12, 6-(4-(Tert-butyl)phenyl)-N-(piperidin-4-yl)benzo[b]thiophene-2-carboxamide Hydrochloride], for which half-maximal inhibition in assay [1] (IC50) was put at 2.1 µM.

Regarding `CC(C)(C)c1ccc(-c2ccc3c(C(=O)NC4CCNCC4)coc3c2)cc1` [Compound 13, 6-(4-(Tert-butyl)phenyl)-N-(piperidin-4-yl)benzofuran-3-carboxamide Hydrochloride], inhibition in assay [1] was half-maximal at 5.1 µM (IC50).

`N#Cc1ccc(-c2ccc3[nH]cc(C(=O)NC4CCNCC4)c3c2)cc1` [Compound 14, 5-(4-cyanophenyl)-N-(piperidin-4-yl)-1H-indole-3-carboxamide Hydrochloride] showed an IC50 in assay [1] greater than 50 µM.

In assay [1], `COc1cc(-c2ccc3[nH]cc(C(=O)NC4CCNCC4)c3c2)cc(OC)c1OC` [Compound 15, N-(piperidin-4-yl)-5-(3,4,5-trimethoxyphenyl)-1H-indole-3-carboxamide Hydrochloride] registered an IC50 greater than 50 µM.

`O=C(NCC1CCNCC1)c1c[nH]c2ccc(-c3ccc(F)cc3)cc12` [Compound 16, 5-(4-fluorophenyl)-N-(piperidin-4-ylmethyl)-1H-indole-3-carboxamide Hydrochloride] came in with an IC50 in assay [1] greater than 50 µM.

The compound `O=C(NCC1CCNCC1)c1c[nH]c2ccc(-c3ccc(F)cc3F)cc12` [Compound 17, 5-(2,4-difluorophenyl)-N-(piperidin-4-ylmethyl)-1H-indole-3-carboxamide Hydrochloride] returned an IC50 in assay [1] greater than 50 µM.

As for `O=Cc1cccc(-c2ccc3[nH]cc(C(=O)NCC4CCNCC4)c3c2)c1` [Compound 18, 5-(3-formylphenyl)-N-(piperidin-4-ylmethyl)-1H-indole-3-carboxamide Hydrochloride], the IC50 in assay [1] was greater than 50 µM.

Take `COc1cc(-c2ccc3c(C(=O)NCC4CCNCC4)c[nH]c3c2)cc(OC)c1OC` [Compound 19, N-(piperidin-4-ylmethyl)-6-(3,4,5-trimethoxyphenyl)-1H-indole-3-carboxamide Hydrochloride]: the IC50 in assay [1] is greater than 50 µM.

Regarding `O=C(NCC1CCNCC1)c1c[nH]c2cc(-c3ccc(F)cc3)ccc12` [Compound 20, 6-(4-fluorophenyl)-N-(piperidin-4-ylmethyl)-1H-indole-3-carboxamide Hydrochloride], in assay [1], the IC50 was greater than 50 µM.

Regarding `O=C(NCC1CCNCC1)c1c[nH]c2cc(-c3ccccc3F)ccc12` [Compound 21, 6-(2-fluorophenyl)-N-(piperidin-4-ylmethyl)-1H-indole-3-carboxamide Hydrochloride], the IC50 in assay [1] is greater than 50 µM.

In turn, `NCc1ccc(-c2ccc3c(C(=O)NCC4CCNCC4)c[nH]c3c2)cc1` [Compound 23, 6-(4-(aminomethyl)phenyl)-N-(piperidin-4-ylmethyl)-1H-indole-3-carboxamide Hydrochloride] gave an IC50 in assay [1] greater than 50 µM.

In turn, `O=C(NCC1CCNCC1)c1cc2cc(-c3cccnc3)ccc2[nH]1` [Compound 33, N-(Piperidin-4-ylmethyl)-5-(pyridin-3-yl)-1H-indole-2-carboxamide Hydrochloride] yielded an IC50 in assay [1] greater than 50 µM.

Compound `O=C(NCC1CCNCC1)c1cc2ccc(-c3ccc(OC(F)(F)F)cc3)cc2[nH]1` [Compound 51, N-(Piperidin-4-ylmethyl)-6-(4-(trifluoromethoxy)phenyl)-1H-indole-2-carboxamide Hydrochloride] registered an IC50 in assay [1] of 3.2 µM.

With `O=C(NCC1CCNCC1)c1cc2ccc(-c3ccoc3)cc2[nH]1` [Compound 66, 6-(Furan-3-yl)-N-(piperidin-4-ylmethyl)-1H-indole-2-carboxamide Hydrochloride], the “mode of inhibition against DV2pro” value in assay [2] is “non-competitive”. Also, the “log reduction of ZIKV replication in U87 cells” value was determined as 0.5 log in assay [3] (at 1 μM) and 2 log in assay [3] (at 10 μM). For the same compound, the “mode of inhibition against ZVpro” value in assay [1] (IC50 vs substrate concentration 0.5 to 10 μM) is given as “non-competitive”.

On to `N#Cc1ccc(-c2ccc3c(C(=O)NC4CCNCC4)coc3c2)cc1` [Compound 69, 6-(4-Cyanophenyl)-N-(piperidin-4-yl)benzofuran-3-carboxamide Hydrochloride], for which the IC50 in assay [1] was greater than 50 µM.

The record behind these values is PMC8585718 (European journal of medicinal chemistry, 2021).
